Source: patent US11191761B2, “SOMCL-9112 solid dispersion and preparation method thereof and SOMCL-9112 solid preparation containing SOMCL-9112 solid dispersion” (SHANGHAI INSTITUTE OF MATERIA MEDICA, CHINESE ACADEMY OF …, priority 2015, dated 2021)
≈ marks a conversion by molar mass, not a printed value. One block for each compound: values may come before it.

Experiments:
[1] = Permeability test using Caco-2 cell model; conditions: human
Method: (§1) Permeability Test: The permeability of SOMCL-9112 was evaluated using Caco-2 cell model.

[2] = tested on: P-gp; assay: Permeability test using Caco-2 cell model; conditions: human
Method: as §1

[3] = molecular target: poly-ADP-ribose polymerase (PARP) (Homo sapiens, UniProt P09874); conditions: in words, no data shown; cited from earlier work
Sequence of poly-ADP-ribose polymerase (PARP) (P09874 whole entry): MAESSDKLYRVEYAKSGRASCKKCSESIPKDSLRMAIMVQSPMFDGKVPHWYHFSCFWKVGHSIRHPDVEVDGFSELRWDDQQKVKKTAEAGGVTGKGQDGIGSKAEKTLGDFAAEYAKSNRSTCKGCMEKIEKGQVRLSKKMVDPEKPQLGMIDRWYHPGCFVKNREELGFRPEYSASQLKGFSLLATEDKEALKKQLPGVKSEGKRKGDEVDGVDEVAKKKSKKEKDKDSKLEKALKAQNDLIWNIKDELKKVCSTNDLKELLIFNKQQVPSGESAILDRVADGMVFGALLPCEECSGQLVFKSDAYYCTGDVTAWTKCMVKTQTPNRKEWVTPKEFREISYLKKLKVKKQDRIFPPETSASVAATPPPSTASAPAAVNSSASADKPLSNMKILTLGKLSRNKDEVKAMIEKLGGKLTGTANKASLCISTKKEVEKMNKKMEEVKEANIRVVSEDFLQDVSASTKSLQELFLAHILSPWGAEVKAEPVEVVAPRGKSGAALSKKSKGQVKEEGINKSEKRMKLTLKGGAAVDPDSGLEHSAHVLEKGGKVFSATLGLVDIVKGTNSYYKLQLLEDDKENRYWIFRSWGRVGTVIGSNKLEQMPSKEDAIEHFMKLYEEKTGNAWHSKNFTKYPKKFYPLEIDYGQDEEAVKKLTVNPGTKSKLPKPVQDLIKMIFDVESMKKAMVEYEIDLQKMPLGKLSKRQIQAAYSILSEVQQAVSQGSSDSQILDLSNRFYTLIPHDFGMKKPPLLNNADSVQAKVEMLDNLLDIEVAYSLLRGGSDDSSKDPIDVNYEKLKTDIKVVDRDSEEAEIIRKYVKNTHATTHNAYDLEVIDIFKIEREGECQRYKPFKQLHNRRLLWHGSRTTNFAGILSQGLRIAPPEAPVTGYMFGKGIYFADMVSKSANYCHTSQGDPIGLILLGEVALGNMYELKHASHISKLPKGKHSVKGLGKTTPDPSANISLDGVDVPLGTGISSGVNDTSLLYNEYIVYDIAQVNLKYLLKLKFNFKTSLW

[4] = tested on: Caco-2 cell model; assay: in vitro
Method: as §1

[5] = Equilibrium solubility test (24 h, HPLC); assay type: physicochemical; conditions: thermodynamic from solid; for solubility thermodynamic at 24 h: 37° C., 100 rpm
Method: Equilibrium Solubility Test: The solubility of SOMCL9112 in a series of solvents was investigated. The main solvents included water, pH 1.2 simulated gastric fluid, pH 4.5 phosphate buffer, and pH 6.8 simulated intestinal fluid. 0.5 g of SOMCL-9112 API was taken and added to 100 ml of each of the above solvents. The mixture was shaken at 37° C. shaker at 100 rpm for 24 h. The supernatant was centrifuged at 8000 rpm for 15 min and the concentration of SOMCL-9112 was determined by HPLC.

[6] = Solubility of SOMCL-9112 API and solid dispersions in water and buffers (37° C., shaking); assay type: physicochemical; conditions: for solubility at 8 h: 37 °C, thermodynamic from solid
Method: The SOMCL-9112 solid dispersion prepared in this Example and the SOMCL-9112 API powder were dissolved in water, simulated gastric fluid (pH 1.2), phosphate buffer (pH 4.5) and simulated intestinal fluid (pH6.8) to measure the solubility of SOMCL-9112 (37° C., shaking at 100 rpm for 8 h). The solid dispersion was sampled at 4 h and 8 h.
The SOMCL-9112 solid dispersion prepared in this example was dissolved in water, simulated gastric fluid (pH 1.2), phosphate buffer (pH 4.5) and simulated intestinal fluid (pH6.8) to measure the solubility of SOMCL-9112 (37° C., shaking at 100 rpm for 8 h).
The SOMCL-9112 solid dispersion prepared in this example was dissolved in a simulated intestinal fluid (pH6.8) to measure the solubility of SOMCL-9112 (37° C., shaking at 100 rpm for 8 h).

Papp A→B [1]: 0.09 ± 0.01 ×10⁻⁶ cm/s
Papp B→A [1]: 9.88 ± 1.41 ×10⁻⁶ cm/s
efflux ratio [2]: 109
SMILES: C[C@H]1O[C@@H](O[C@H]2[C@@H](O)C[C@H](O[C@H]3[C@@H](O)C[C@H](O[C@H]4CC[C@@]5(C)[C@H](CC[C@@H]6[C@@H]5C[C@@H](O)[C@]5(C)[C@@H](C7=CC(=O)OC7)CC[C@]65O)C4)O[C@@H]3C)O[C@@H]2C)C[C@H](O)[C@@H]1O [Digoxin, reference compound]

Papp A→B [1]: 10.5 ± 1.97 ×10⁻⁶ cm/s
Papp B→A [1]: 7.57 ± 0.6 ×10⁻⁶ cm/s
efflux ratio [2]: 0.72
SMILES: CC(C)NCC(O)COc1cccc2ccccc12 (stereo not drawn) [Propranolol, reference compound]

Papp A→B at 2 μM ([1]; Caco-2): 0.72 ×10⁻⁶ cm/s
Papp A→B at 10 μM ([1]; Caco-2): 0.26 ± 0.03 ×10⁻⁶ cm/s
Papp A→B at 50 μM ([1]; Caco-2): 0.34 ± 0.06 ×10⁻⁶ cm/s
Papp B→A at 2 μM ([1]; Caco-2): 16.3 ± 0.34 ×10⁻⁶ cm/s
Papp B→A at 10 μM ([1]; Caco-2): 16.1 ± 1.05 ×10⁻⁶ cm/s
Papp B→A at 50 μM ([1]; Caco-2): 18.7 ± 0.28 ×10⁻⁶ cm/s
Permeability characteristic [4]: low permeability characteristic
efflux ratio at 2 μM ([2]; Caco-2): 22.6
efflux ratio at 10 μM ([2]; Caco-2): 61.9
efflux ratio at 50 μM ([2]; Caco-2): 54.5
solubility thermodynamic ([5]; 37 °C, aqueous buffer, pH 1.2-6.8 buffer saline solution): < 100 µg/mL
solubility thermodynamic at 24 h ([5]; aqueous buffer, pH 4.5 phosphate buffer): 18.6 µg/mL (≈ 38.2 µM)
solubility thermodynamic at 24 h ([5]; fassgf or other biorelevant, pH 6.8 simulated intestinal fluid): 16.2 µg/mL (≈ 33.3 µM)
solubility thermodynamic at 24 h ([5]; pH 1.2 simulated gastric fluid): 10.3 µg/mL (≈ 21.2 µM)
solubility thermodynamic at 24 h ([5]; water): 14.8 µg/mL (≈ 30.4 µM)
solubility at 8 h ([6]; pH 1.2, simulated gastric fluid): 10.5 µg/mL (≈ 21.6 µM)
solubility at 8 h ([6]; pH 4.5, aqueous buffer): 18.9 µg/mL (≈ 38.9 µM)
solubility at 8 h ([6]; pH 6.8, fassgf or other biorelevant): 15.4 µg/mL (≈ 31.7 µM)
solubility at 8 h ([6]; water): 15.8 µg/mL (≈ 32.5 µM)
solubility ([6]; fassgf or other biorelevant): ~10 µg/mL (≈ 20.6 µM)
SMILES: CC1CN(C(=O)c2cc(Cc3n[nH]c(=O)c4ccccc34)ccc2F)Cc2nnc(C(F)(F)F)n21 (stereo not drawn) [SOMCL-9112, 4-(4-fluoro-3-(5-methyl-3-(trifluoromethyl)-5,6,7,8-4H-[1,2,4]triazolo[4,3-a]piperazine-7-carbonyl)benzyl)phthalazin-1(2H)-one]
Inhibitory effect on PARP [3]: significant inhibitory effect
